Type in all cases: in vivo
Test [1] relates to Euschistus tristigmus. Description: Tedders trap field capture of Euschistus tristigmus, pheromone with vs without geraniol synergist. To be noted: soybean field; 160 mg geraniol + 200 mg methyl (2E,4Z)-decadienoate vs 200 mg methyl (2E,4Z)-decadienoate alone; Pr>t 0.04. On the procedure:
An experiment was carried out near Starkville, Oktibbeha County in Mississippi to study the response of Euschistus tristigmus in a crop field to a pheromone synergist. The crop field was a soybean field bordered on two sides by woods. Geraniol was used as a synergist with methyl (2E,4Z)-decadienoate, a pheromone for Euschistus tristigmus. Tedders traps were used in the experiment. Each trap was baited with 160 mg geraniol and 200 mg methyl (2E,4Z)-decadienoate and each control trap was baited with 200 mg methyl (2E,4Z)-decadienoate. The control trap contained no geraniol or other synergists. The trapped adult insects of Euschistus tristigmus were collected on a daily basis and the total number of trapped insects was counted. Statistical analysis was done using the Least Squares means separation from the SAS GLM procedure.

For test [2], the system named is Euschistus servus. Put plainly: Tedders trap field capture of Euschistus servus, pheromone with vs without geraniol synergist. To be noted: 160 mg geraniol + 200 mg methyl (2E,4Z)-decadienoate vs pheromone alone. On the procedure:
An experiment was carried out near Starkville, Oktibbeha County in Mississippi to study the response of Euschistus servus to a pheromone synergist. Geraniol was used as a synergist with methyl (2E,4Z)-decadienoate, a pheromone for Euschistus servus. Tedders traps were used in the experiment. Each treatment trap was baited with 160 mg geraniol and 200 mg methyl (2E,4Z)-decadienoate and each control trap was baited with 200 mg methyl (2E,4Z)-decadienoate. The control trap contained no geraniol or any other synergist. The trapped adult insects of Euschistus servos were collected on a daily basis and their total numbers were counted. Statistical analysis was done using the Least Squares means separation from the SAS GLM procedure.

The test system of test [3] is Euschistus species. Put plainly: Tedders trap field capture of Euschistus species, pheromone with vs without geraniol synergist. The settings on record: soybean field, Monticello, Ark.; 160 mg geraniol + 200 mg methyl (2E,4Z)-decadienoate vs pheromone alone; Pr>t 0.09. On the procedure:
An experiment was carried out in Monticello, Ark. to study the response of Euschistus species in a soybean field to a pheromone synergist. Geraniol was used as a synergist to methyl (2E,4Z)-decadienoate, which is a pheromone for both Euschistus species. […] traps were used in the experiment. Each treatment trap was baited with 160 mg geraniol and 200 mg methyl (2E,4Z)-decadienoate and each control trap was baited with 200 mg methyl (2E,4Z)-decadienoate. The control traps contained no geraniol or any other synergist. The trapped adult insects of Euschistus species were collected on a daily basis and their total numbers were counted. Statistical analysis was done using the Least Squares means separation from the SAS GLM procedure.

Consider one compound from patent publication US7824668B2, “Compositions for attracting stink bugs” (Cotton Incorporated, priority 2006, dated 2010).

As to `CC(C)=CCC/C(C)=C/CO` [geraniol, E-(3,7)-Dimethyl-2,6-octadien-1-ol], the “increase in the number of captured Euchistus tristigmus” value in test [1] is reported as around 75%. In addition, the “increase in the number of captured bugs” value in test [2] (crepe myrtle field, Pr>t 0.51) is on record as around 72%; in test [2] (field of mixed crops of plum and okra, Pr>t 0.02) it was around 92%; in test [2] (new-peach field, Pr>t 0.05) it was around 251%; in test [2] (old-peach field, Pr>t 0.02), around 122%; in test [2] (soybean field, Pr>t 0.61) it was around 14%; in test [3] it was around 269%.
